One data set concerns the target T1, E. coli DNA gyrase (Escherichia coli, UniProt P0AES4+P0AES6).
T1 construct: made in house; host or cells: E. coli
As to the kind of experiment: DNA gyrase supercoiling assay. The conditions noted are these: read-out: inhibition of E. coli DNA gyrase supercoiling IC50. Type of data set: biochemical. The protocol: Enzyme activity is measured by a supercoiling assay that monitors the ATP-dependent conversion of relaxed pBR322 DNA to the supercoiled form. Analysis is done by gel electrophoresis through 1% agarose/TBE gel. DNA is visualized with an Alpha Imager 2200 Analysis System and the IC50 determined by nonlinear regression analysis with Graphpad Prism software. E. coli DNA gyrase enzyme subunits, gyrA and gyrB, are purified to homogeneity from over-expression constructs in E. coli.

The next data set has as its system E. coli ATCC 25922. As to the kind of experiment: Minimum inhibitory concentration (MIC) assay, broth microdilution. Type of data set: cell-based. As to conditions: Escherichia coli, ATCC25922; against E. coli; visible growth after 18–24 h at 37° C. The protocol:
(§1) The antimicrobial activity of the compounds of the invention may be evaluated by a number of methods, including the following visual minimum inhibitory concentration (MIC) assay. This assay determines the minimum concentration of compound required to inhibit growth of a bacterial strain. Minimum Inhibitory Concentration (MIC) Assay Whole-cell antibacterial activity is determined by broth microdilution using conditions recommended by the National Committee for Clinical Laboratory Standards (NCCLS). […] Test compounds are dissolved in DMSO and diluted 1:50 in Mueller-Hinton II broth (Becton-Dickinson) to produce a 256 μg/ml stock solution. In a 96-well microtiter plate, the compound solution is serially two-fold diluted in Mueller-Hinton II broth. After the compounds are diluted, a 50 μl aliquot of the test organism (˜1×10^6 cfu/mL) is added to each well of the microtiter plate. The final test concentrations range from 0.125–128 μg/mL. Inoculated plates are incubated in ambient air at 37° C. for 18 to 24 hours. The organisms selected for testing included laboratory strains S. aureus ATCC 29213 and E. coli ATCC 25922 (strains purchased from American Type Culture Collection, Manassas, Va.). The minimum inhibitory concentration (MIC) was determined as the lowest concentration of compound that inhibited visible growth of the test organism.
(In general: In broth dilution the organism is exposed to a series of concentrations in liquid medium.)

The test system of a further data set is S. aureus ATCC 29213. Described as above. Type of data set: cell-based. As to conditions: Staphylococcus aureus, ATCC29213; against S. aureus; visible growth after 18–24 h at 37° C. The protocol: as §1
Data set [1] concerns the target T2, S. aureus topoisomerase IV (Staphylococcus aureus, UniProt P0C1S7+P0C1U9).
T2 construct: made in house; host or cells: E. coli
The data set can be described thus: Topoisomerase IV decatenation assay. The data set is classed as biochemical. How it is done: Topoisomerase IV Activity
Enzyme activity is measured by a decatenation assay that monitors the ATP-dependent unlinking of DNA minicircles from kinetoplast DNA. Analysis is done by gel electrophoresis through 1% agarose/TBE gel. DNA is visualized with an Alpha Imager 2200 Analysis System and the IC50 determined by nonlinear regression analysis with Graphpad Prism software. S. aureus topoismerase IV enzyme subunits, grlA and grlB, are purified to homogeneity from over-expression plasmids in E. coli.

The next data set addresses S. aureus DNA gyrase (Staphylococcus aureus, UniProt P0A0K8+P20831). As to the kind of experiment: DNA gyrase supercoiling assay. The data set is classed as biochemical.
Data set [2] can be described thus: Cell viability staining with Alamar Blue (cytotoxicity). As to conditions: human, HEP 2 (laryngeal carcinoma) cells; HEP 2 cells, positive control. Type of data set: cell-based. A general note: Alamar Blue is a resazurin reagent that responds to reducing activity.
Protocol: (§2) Optimal cell density is first determined by plating cells in a 96-well plate standard sterile tissue culture plates in 100 μl media, 10%FBS at six cell densities from 500 cells/well to 15,000 cells/well. A cell free well containing only media is used as a control. Cells are incubated at 37° C. in a 5% CO2 incubator for 24 hours. 10% culture volume (10 microliters) of Alamar Blue (Biosource, DAL1100, 100 ml) is then added. Cells are incubated at 37° C. in a 5% CO2 incubator and read in a Victor V plate reader, 544 nm excitation, 590 nm emission, at 3, 4, and 24 hours after the addition of Alamar Blue. The cell number vs. change in fluorescence is plotted to determine linearity of signal vs. cell number. The optimal density varies between 500–15,000 cells/well depending on the specific cell type. The optimal density is selected based on the highest number of cells that is still in the linear response range. Determination of Compound Cytotoxicity Cells are plated at optimal cell density in a standard sterile tissue culture 96 well plate, and incubated at 37° C. O/N in a 5% CO2 incubator. 12 to 48 hours post-plating media is removed. […] Plates are incubated 4 hours at 37° C. in a 5% CO2 incubator and read in a Victor V plate reader, 544 nm excitation, 590 nm emission. […] The change in fluorescence vs. concentration of test compound is plotted to determine the cytotoxicity of the compound.
Assay in data set [3]: as above
Protocol: as §2
Type of data set: cell-based. As to conditions: Chinese hamster, CHO (Chinese hamster ovary) cells, positive control.

pIC50: −log10 of the molar value. Values after ≈ are worked out from the molar mass of the structure shown. Where two headings read alike, the source gives them in different places.

T2 sequence (P0C1U9 whole entry): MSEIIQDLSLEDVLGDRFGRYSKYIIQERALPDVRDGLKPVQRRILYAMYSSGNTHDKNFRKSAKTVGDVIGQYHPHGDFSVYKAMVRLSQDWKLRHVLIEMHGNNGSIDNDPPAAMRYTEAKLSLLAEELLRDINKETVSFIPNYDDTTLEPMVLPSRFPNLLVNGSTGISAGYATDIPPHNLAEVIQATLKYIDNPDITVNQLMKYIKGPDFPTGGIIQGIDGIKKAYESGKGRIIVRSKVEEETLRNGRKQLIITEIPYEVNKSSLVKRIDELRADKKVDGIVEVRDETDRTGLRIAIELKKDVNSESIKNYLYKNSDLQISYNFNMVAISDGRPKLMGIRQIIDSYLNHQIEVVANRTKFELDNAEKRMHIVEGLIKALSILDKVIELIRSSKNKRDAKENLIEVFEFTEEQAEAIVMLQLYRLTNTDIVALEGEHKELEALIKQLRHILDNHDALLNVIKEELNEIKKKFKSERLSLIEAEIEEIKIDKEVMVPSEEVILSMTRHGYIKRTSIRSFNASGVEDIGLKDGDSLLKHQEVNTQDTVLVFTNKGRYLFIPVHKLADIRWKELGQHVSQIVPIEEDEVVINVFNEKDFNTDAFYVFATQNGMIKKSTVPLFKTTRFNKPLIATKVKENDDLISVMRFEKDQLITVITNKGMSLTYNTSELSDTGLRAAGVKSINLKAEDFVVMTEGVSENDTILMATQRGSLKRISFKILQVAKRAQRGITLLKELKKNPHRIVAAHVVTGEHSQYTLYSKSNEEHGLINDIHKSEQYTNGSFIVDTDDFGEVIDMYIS
T2 sequence (P0C1S7 whole entry): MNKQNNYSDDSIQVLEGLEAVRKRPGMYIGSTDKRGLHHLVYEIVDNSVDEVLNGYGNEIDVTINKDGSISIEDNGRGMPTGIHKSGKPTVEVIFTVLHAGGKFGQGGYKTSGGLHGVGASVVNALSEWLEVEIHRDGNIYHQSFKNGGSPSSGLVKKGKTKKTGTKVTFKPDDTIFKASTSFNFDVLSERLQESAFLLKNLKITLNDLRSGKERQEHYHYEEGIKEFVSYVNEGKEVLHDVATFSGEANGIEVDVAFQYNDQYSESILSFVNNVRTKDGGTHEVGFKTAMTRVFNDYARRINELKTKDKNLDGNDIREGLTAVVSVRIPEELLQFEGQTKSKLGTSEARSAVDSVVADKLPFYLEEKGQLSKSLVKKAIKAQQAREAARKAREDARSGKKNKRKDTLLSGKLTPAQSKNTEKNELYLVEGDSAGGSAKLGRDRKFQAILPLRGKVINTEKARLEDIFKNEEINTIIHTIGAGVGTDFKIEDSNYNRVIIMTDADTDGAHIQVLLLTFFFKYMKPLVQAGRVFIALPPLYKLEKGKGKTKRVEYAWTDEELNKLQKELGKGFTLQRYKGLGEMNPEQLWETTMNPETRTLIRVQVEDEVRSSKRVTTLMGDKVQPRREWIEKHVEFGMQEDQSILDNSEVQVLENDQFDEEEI
T1 sequence (P0AES4 whole entry, one chain of several): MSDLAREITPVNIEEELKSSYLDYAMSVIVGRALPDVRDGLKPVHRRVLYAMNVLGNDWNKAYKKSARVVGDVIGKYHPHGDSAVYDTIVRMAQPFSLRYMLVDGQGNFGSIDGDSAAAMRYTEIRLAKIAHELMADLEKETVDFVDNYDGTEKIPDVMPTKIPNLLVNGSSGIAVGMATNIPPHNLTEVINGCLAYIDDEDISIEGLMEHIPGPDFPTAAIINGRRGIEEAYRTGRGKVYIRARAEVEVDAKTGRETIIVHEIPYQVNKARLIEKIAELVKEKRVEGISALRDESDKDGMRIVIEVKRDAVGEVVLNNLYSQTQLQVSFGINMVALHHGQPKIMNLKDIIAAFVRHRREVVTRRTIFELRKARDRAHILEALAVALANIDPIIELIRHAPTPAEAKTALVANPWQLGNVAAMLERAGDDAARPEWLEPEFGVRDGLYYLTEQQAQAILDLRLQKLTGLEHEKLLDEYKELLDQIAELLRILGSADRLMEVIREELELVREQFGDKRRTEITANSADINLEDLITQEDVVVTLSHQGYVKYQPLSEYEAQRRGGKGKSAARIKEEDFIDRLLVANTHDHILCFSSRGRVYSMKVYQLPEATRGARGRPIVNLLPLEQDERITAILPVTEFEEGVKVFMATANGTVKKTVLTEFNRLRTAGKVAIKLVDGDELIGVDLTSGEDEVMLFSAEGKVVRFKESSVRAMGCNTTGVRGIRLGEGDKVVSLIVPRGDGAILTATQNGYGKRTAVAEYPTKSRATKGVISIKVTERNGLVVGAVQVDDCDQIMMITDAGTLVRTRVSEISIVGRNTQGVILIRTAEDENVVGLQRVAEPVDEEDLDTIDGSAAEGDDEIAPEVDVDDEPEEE
Sequence of S. aureus DNA gyrase (P20831 whole entry): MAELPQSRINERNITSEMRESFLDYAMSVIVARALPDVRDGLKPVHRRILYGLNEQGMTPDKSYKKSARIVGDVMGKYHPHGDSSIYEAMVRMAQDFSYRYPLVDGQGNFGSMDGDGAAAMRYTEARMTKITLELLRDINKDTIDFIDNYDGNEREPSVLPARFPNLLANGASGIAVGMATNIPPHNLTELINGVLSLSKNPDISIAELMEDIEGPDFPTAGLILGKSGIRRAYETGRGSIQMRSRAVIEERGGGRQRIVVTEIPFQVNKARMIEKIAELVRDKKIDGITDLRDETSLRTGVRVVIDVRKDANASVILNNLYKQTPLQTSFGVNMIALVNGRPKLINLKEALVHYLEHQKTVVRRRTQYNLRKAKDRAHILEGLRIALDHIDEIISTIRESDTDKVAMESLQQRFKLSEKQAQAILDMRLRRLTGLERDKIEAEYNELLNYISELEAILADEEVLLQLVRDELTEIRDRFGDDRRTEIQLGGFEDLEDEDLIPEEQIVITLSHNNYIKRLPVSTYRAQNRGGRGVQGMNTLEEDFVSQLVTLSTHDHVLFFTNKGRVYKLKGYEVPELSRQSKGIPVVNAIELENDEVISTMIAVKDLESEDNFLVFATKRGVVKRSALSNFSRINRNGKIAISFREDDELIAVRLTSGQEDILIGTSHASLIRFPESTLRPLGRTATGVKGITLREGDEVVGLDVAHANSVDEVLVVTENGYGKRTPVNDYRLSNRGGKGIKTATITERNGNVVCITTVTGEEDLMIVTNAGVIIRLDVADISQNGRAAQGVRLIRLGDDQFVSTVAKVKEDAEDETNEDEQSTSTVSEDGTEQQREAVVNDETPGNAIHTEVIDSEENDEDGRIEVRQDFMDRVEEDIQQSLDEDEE
Sequence of S. aureus DNA gyrase (P0A0K8 whole entry): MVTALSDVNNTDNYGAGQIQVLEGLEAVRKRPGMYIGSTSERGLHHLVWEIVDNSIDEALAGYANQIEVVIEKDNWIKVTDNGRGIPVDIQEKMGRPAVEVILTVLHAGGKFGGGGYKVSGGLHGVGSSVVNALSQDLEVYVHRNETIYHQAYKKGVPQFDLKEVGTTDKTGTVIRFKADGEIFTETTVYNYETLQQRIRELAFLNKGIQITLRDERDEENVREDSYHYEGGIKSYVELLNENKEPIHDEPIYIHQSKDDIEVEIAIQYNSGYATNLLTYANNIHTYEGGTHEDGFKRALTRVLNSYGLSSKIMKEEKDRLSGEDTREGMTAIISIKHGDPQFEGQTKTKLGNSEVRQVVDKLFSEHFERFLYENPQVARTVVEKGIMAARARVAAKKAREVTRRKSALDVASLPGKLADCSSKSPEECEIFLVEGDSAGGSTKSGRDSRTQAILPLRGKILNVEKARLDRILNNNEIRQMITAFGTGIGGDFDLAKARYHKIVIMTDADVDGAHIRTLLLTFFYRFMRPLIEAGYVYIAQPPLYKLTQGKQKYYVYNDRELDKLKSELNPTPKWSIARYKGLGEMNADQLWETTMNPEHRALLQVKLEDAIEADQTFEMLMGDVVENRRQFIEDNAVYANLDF

As to `CCc1c2s[nH]c(=O)c2c(=O)n2ccc(N3CCC(N(C)C)C3)cc12` (racemic) [Compound 7, 8-(3-(dimethylamino)pyrrolidin-1-yl)-10-ethyl-2H-isothiazolo[5,4-b]quinolizine-3,4-dione], the pIC50 (commonly the IC50 on a negative log10 scale, so that one unit is a factor of ten) is above 6.00 on E. coli DNA gyrase and above 5.00 in data set [1]. The MIC against E. coli ATCC 25922 and against S. aureus ATCC 29213 was 10 µg/mL (≈ 27.9 µM) each time.
`CCc1c2s[nH]c(=O)c2c(=O)n2ccc(N3CCNCC3)cc12` [Compound 8, 10-ethyl-8-(piperazin-1-yl)-2H-isothiazolo[5,4-b]quinolizine-3,4-dione]: the pIC50 at E. coli DNA gyrase is above 6.00; in data set [1] (read-out: inhibition of S. aureus topoisomerase IV activity IC50), above 5.00; against S. aureus DNA gyrase, below 3.70. Besides, the MIC in the data set with E. coli ATCC 25922 and in the data set with S. aureus ATCC 29213 was 10 µg/mL (≈ 30.3 µM) each time.
As for `O=c1[nH]sc2c(C3CC3)c3cc(N4CC(O)C4)c(F)cn3c(=O)c12` [Compound 9, 10-cyclopropyl-7-fluoro-8-(3-hydroxyazetidin-1-yl)-2H-isothiazolo[5,4-b]quinolizine-3,4-dione], the pIC50 on S. aureus DNA gyrase was below 3.70.
Take `CC(C)(C)c1ccc(C(O)CCCN2CCC(C(O)(c3ccccc3)c3ccccc3)CC2)cc1` (stereo not drawn) [Terfenadine]: the CC50 – broadly, the concentration giving 50% cytotoxicity – lay in the range of 3 to 5 µM in data set [2] and 4.3 to 6.5 µM in data set [3].
